Assay results as given in patent US20220389109A1, “Management of conditions other than multiple sclerosis in ofatumumab-treated patients” (Novartis AG, priority 2019, published 2022).
Where two headings read alike, the source gives them in different places.

Legend:
total immunoglobulins = details: over the controlled period of the studies, mainly driven by reduction in IgM; cited from earlier work
[1] = test system: IgG, B-cell subtypes, adverse events; details: human, in vivo
Method: MS patients are treated with either ofatumumab or Ocrevus (ocrelizumab). Selected patients having psoriatic arthritis are monitored under a special study program. […] Some of them cannot take a disease-modifying antirheumatic drugs (DMARD) such as • Leflunomide (Arava), • Methotrexate (Otrexup, Rasuvo, Rheumatrex, Trexall) or • Sulfasalazine (Azulfidine).
Thus, they are treated with an immunosuppressant, i.e. one of • Azathioprine (Imuran, Azasan) or • Cyclosporine (Gengraf, Neoral, Sandimmune).

[2] = test system: serum immunoglobulin (IgG); details: cited from earlier work
MS patients = details: cited from earlier work; for reduction in annualized relapse rate compared to teriflunomide: p<0.001
[3] = test system: (total) IgG, B-cell subtypes; details: human, in vivo
Method: Ofatumumab is administered s.c. to RRMS patients. If injection-related reactions occurs, symptomatic treatment is provided. For patients who experienced pain, redness or itching, hydrocortisone cream is applied after the injection to help with itching, redness and swelling. A pain reliever is also be used.

[4] = test system: urinary tract infections, B-cell subtypes; details: human, in vivo
Description: A first group of patients is monitored after an ischemic stroke. A sub-group of the patients are expected to have difficulty with urinary leakage or are not able to empty their bladder completely because of muscle weakness. For these reasons, a catheter will be placed inside the bladder. However, there is an increased risk of urinary tract infections related to the use of a catheter. These infections will be treated with one of • Trimethoprim/sulfamethoxazole (Bactrim, Septra, others), • Fosfomycin (Monurol), • Nitrofurantoin (Macrodantin, Macrobid), • Cephalexin (Keflex) or • Ceftriaxone.
A second group of patients consists of ofatumumab-treated MS patients. A sub-group of the patients develops adverse events, including urinary tract infections. These infections are treated with one of • Trimethoprim/sulfamethoxazole (Bactrim, Septra, others), • Fosfomycin (Monurol), • Nitrofurantoin (Macrodantin, Macrobid), • Cephalexin (Keflex) or • Ceftriaxone.

[5] = parameters: species or system human; details: in vivo
Method: (§1) ASCLEPIOS I and II are double-blind, double-dummy, active comparator-controlled, parallel-group, innovative, adaptive design, multicentre trials. Patients were randomised (1:1) to receive either ofatumumab 20 mg sc injections every 4 weeks (after an initial loading regimen of 20 mg sc doses on Days 1, 7 and 14) or teriflunomide 14 mg orally once daily, for up to 30 months. The studies have flexible durations, with termination occurring in the blinded core treatment epoch according to pre-specified criteria. Patients aged 18-55 years with an Expanded Disability Status Scale (EDSS) score (according to Kurtzke, Neurology. 1983, November; 33(11): 1444-52) of 0-5.5 at screening who experienced ≥1 relapse in the past year or ≥2 relapses in the past 2 years or a positive gadolinium-enhancing (Gd+) MRI scan during the year before randomisation were included.
(§2) Serum IgG/IgM levels were monitored at baseline, Week (W) 4, W12 and every 12 weeks, see FIG. 1. […] Reference is made to FIG. 1.

[6] = test system: Immunoglobulin G, Plasma/Serum; parameters: species or system human; details: in vivo
Method: as §1, §2
• At each visit-window, only patients with a value at both Baseline and that visit-window are included.

[7] = test system: total B cells (CD19+ CD45+), CD20+ CD3+ T cells; test: APLIOS Phase 2 study: B and T-cell subsets in blood by FACS; assay type: in vivo, human; details: 20 mg s.c.
Method: APLIOS was a 12-week, open-label, Phase 2 bioequivalence study. Patients received ofatumumab 20 mg (0.4 mL) s.c. loading doses on Days 1, 7 and 14, and maintenance doses every 4 weeks from Week 4 via a prefilled syringe or an autoinjector pen (SensoReady). Changes in B and T-cell subsets were analysed longitudinally in blood samples of a group of patients using fluorescence-activated cell sorting (FACS).

IgM = details: in vivo; cited from earlier work

## ocrelizumab
Total immunoglobulins
  change in total immunoglobulins: decrease in total immunoglobulins
[1]
  adverse events (e.g. infections) after treatment with the immunosuppressant: significantly more adverse events
[2]; after two years (96 weeks), pooled OPERA
  reduction of IgG levels: approx. 5%
[2]; assessed over 5.5 years
  reduction in serum Ig levels, approximate mean rate: 3-4 % per year

## ofatumumab
MS patients; ASCLEPIOS I
  reduction in annualized relapse rate compared to teriflunomide: 50.5%
MS patients; ASCLEPIOS II
  reduction in annualized relapse rate compared to teriflunomide: 58.5%
MS patients; in vivo
  suppression of gadolinium (Gd) T1 lesions compared to Aubagio: highly significant suppression
MS patients; pre-specified pooled analyses, p=0.012
  relative risk reduction in 6-month CDP versus Aubagio: 32.5%
[3]
  combined immunosuppression or toxicity of ofatumumab and hydrocortisone: no evidence
  follicular B-cell subtype: marked decrease
  marginal zone and germinal center B-cell subtypes: less affected
[3]; sc
  level of (total) IgG in patients with injection-related reactions versus without reactions and hydrocortisone: comparable
[1]
  follicular B-cell subtype: marked decrease
  level of IgG versus Ocrevus-treated patients: significantly higher
  marginal zone and germinal center B-cell subtypes: less affected
[4]
  follicular B-cell subtype: marked decrease
  management of urinary tract infections: No significant difference
  marginal zone and germinal center B-cell subtypes: less affected
[5]
  incidence of infections: Advantageous low incidence
[6]
  IgG decrease as compared with teriflunomide-treated patients: less pronounced and shorter
  turning point at which the trend of decreasing IgG levels reverses: 36 week
[7]
  depletion of CD20+ CD3+ T cells: rapidly and potently depleted
  depletion of memory B cells (CD19+ CD45+ CD27+) compared with naïve B cells: more efficient depletion
[7]; by Day 7 through Day 14 of the loading regimen, maintained for remaining study duration
  median total B-cell levels: ≤ 5 cells/μL
[7]; measured on Day 4 and Day 7
  depletion in total B cells (CD19+ CD45+): rapid and sustained depletion

## rituximab
IgM
  effect on IgM levels: depression of IgM levels
